In ChEMBL document CHEMBL3885861, “Open TG-GATES”:

Species on record: Rattus norvegicus
Experiment: Open TG-GATES - Regimen: Single
Assay type: toxicity, organism-based, Sprague-Dawley
Design: regimen Single, gender Male, age 6 weeks
Settings: in vivo, po, 60 mg/kg, route gavage, dose level High; for APTT / Bas / Eos / Fbg / Hb / Ht / Lym / MCH / MCHC / MCV / Mono / Neu / PT / Plat / RBC / Ret / WBC: tissue Blood; for KIDNEY_L / KIDNEY_R / KIDNEY_TOTAL: tissue Kidney; for LIVER: tissue Liver; for A/G / ALP / ALT / AST / BUN / CRE / Ca / Cl / DBIL / GLC / IP / K / LDH / Na / PL / RALB / TBIL / TC / TG / TP / gamma-GTP: tissue Plasma

In the case of `CC(C)NNC(=O)c1ccncc1` [IPRONIAZID], the TERMINAL_BW (3 h) is reported as 204.9 g, the APTT (3 h) is reported as 22.1 s and the Bas (3 h) is reported as 0%. For the same compound, the Eos (3 h) was 1%, the Fbg (3 h) was 294 mg/dL and the Hb (3 h) was 12.7 g/dL. The Ht (3 h) was 37%, the Lym (3 h) was 74.8% and the MCH (3 h) was 20.9 pg. The MCHC (3 h) was 34.2%, the MCV (3 h) was 61 fL and the Mono (3 h) was 2%. The Neu (3 h) was 21.8%, the PT (3 h) was 16.2 s and the Plat (3 h) was 124.5 x10_4/uL. The RBC (3 h) was 608.8 x10_4/ul, the Ret (3 h) was 7.9% and the WBC (3 h) was 90.6 x10_2/uL. The KIDNEY_L (3 h) was 1 g, the KIDNEY_R (3 h) was 1 g and the KIDNEY_TOTAL (3 h) was 1.9 g. It also gave an LIVER (3 h) of 8.8 g, an A/G (3 h) of 1.3 and an ALP (3 h) of 1312.5 IU/L. For the same compound, the ALT (3 h) was 35 IU/L, the AST (3 h) was 72.2 IU/L and the BUN (3 h) was 12 mg/dL. For the same compound, the CRE (3 h) was 0.2 mg/dL, the Ca (3 h) was 10.5 mg/dL and the Cl (3 h) was 105.8 meq/L. For the same compound, the DBIL (3 h) was 0 mg/dL, the GLC (3 h) was 180.5 mg/dL and the IP (3 h) was 9.8 mg/dL. For the same compound, the K (3 h) was 4 meq/L, the LDH (3 h) was 221.5 IU/L and the Na (3 h) was 141.2 meq/L. For the same compound, the PL (3 h) was 136 mg/dL, the RALB (3 h) was 2.9 g/dL and the TBIL (3 h) was 0 mg/dL. The TC (3 h) was 78 mg/dL, the TG (3 h) was 34.8 mg/dL and the TP (3 h) was 5.2 g/dL. For the same compound, the gamma-GTP (3 h) was 1 IU/L, the TERMINAL_BW (6 h) was 212.4 g and the APTT (6 h) was 21.7 s. The Bas (6 h) was 0%, the Eos (6 h) was 0.8% and the Fbg (6 h) was 325.8 mg/dL. For the same compound, the Hb (6 h) was 13 g/dL, the Ht (6 h) was 38% and the Lym (6 h) was 72.2%. It also gave an MCH (6 h) of 21 pg, an MCHC (6 h) of 34.3% and an MCV (6 h) of 61.4 fL. The Mono (6 h) was 2%, the Neu (6 h) was 23.8% and the PT (6 h) was 15.6 s. For the same compound, the Plat (6 h) was 125.7 x10_4/uL, the RBC (6 h) was 619.8 x10_4/ul and the Ret (6 h) was 8%. It also gave a WBC (6 h) of 79.9 x10_2/uL, a KIDNEY_L (6 h) of 0.9 g and a KIDNEY_R (6 h) of 0.9 g. The KIDNEY_TOTAL (6 h) was 1.8 g, the LIVER (6 h) was 9.2 g and the A/G (6 h) was 1.3. It also gave an ALP (6 h) of 1181.8 IU/L, an ALT (6 h) of 35 IU/L and an AST (6 h) of 75.4 IU/L. The BUN (6 h) was 8.8 mg/dL, the CRE (6 h) was 0.1 mg/dL and the Ca (6 h) was 10.8 mg/dL. The Cl (6 h) was 106.8 meq/L, the DBIL (6 h) was 0.002 mg/dL and the GLC (6 h) was 180 mg/dL. It also gave an IP (6 h) of 9.9 mg/dL, a K (6 h) of 4.1 meq/L and an LDH (6 h) of 237.8 IU/L. For the same compound, the Na (6 h) was 142 meq/L, the PL (6 h) was 159.2 mg/dL and the RALB (6 h) was 3 g/dL. It also gave a TBIL (6 h) of 0.002 mg/dL, a TC (6 h) of 93.6 mg/dL and a TG (6 h) of 44.6 mg/dL. The TP (6 h) was 5.5 g/dL, the gamma-GTP (6 h) was 1.4 IU/L and the TERMINAL_BW (9 h) was 196.4 g. For the same compound, the APTT (9 h) was 22.5 s, the Bas (9 h) was 0% and the Eos (9 h) was 1%. For the same compound, the Fbg (9 h) was 320.6 mg/dL, the Hb (9 h) was 13 g/dL and the Ht (9 h) was 37.9%. It also gave a Lym (9 h) of 76%, an MCH (9 h) of 20 pg and an MCHC (9 h) of 34.3%. The MCV (9 h) was 58.3 fL, the Mono (9 h) was 1.4% and the Neu (9 h) was 21%. For the same compound, the PT (9 h) was 15.9 s, the Plat (9 h) was 121.4 x10_4/uL and the RBC (9 h) was 650.4 x10_4/ul. The Ret (9 h) was 6.3%, the WBC (9 h) was 55.2 x10_2/uL and the KIDNEY_L (9 h) was 0.9 g. For the same compound, the KIDNEY_R (9 h) was 0.9 g, the KIDNEY_TOTAL (9 h) was 1.8 g and the LIVER (9 h) was 8 g. For the same compound, the A/G (9 h) was 1.2, the ALP (9 h) was 1174.6 IU/L and the ALT (9 h) was 27.2 IU/L. It also gave an AST (9 h) of 65 IU/L, a BUN (9 h) of 7.6 mg/dL and a CRE (9 h) of 0.2 mg/dL. For the same compound, the Ca (9 h) was 10.4 mg/dL, the Cl (9 h) was 107 meq/L and the DBIL (9 h) was 0.006 mg/dL. The GLC (9 h) was 184.6 mg/dL, the IP (9 h) was 9.4 mg/dL and the K (9 h) was 4 meq/L. For the same compound, the LDH (9 h) was 176.2 IU/L, the Na (9 h) was 142.2 meq/L and the PL (9 h) was 139.6 mg/dL. The RALB (9 h) was 3.1 g/dL, the TBIL (9 h) was 0.004 mg/dL and the TC (9 h) was 84.4 mg/dL. The TG (9 h) was 30.4 mg/dL, the TP (9 h) was 5.6 g/dL and the gamma-GTP (9 h) was 1 IU/L. It also gave a TERMINAL_BW (24 h) of 208.5 g, an APTT (24 h) of 21.7 s and a Bas (24 h) of 0%. For the same compound, the Eos (24 h) was 1%, the Fbg (24 h) was 336.8 mg/dL and the Hb (24 h) was 13.6 g/dL. It also gave a Ht (24 h) of 39.4%, a Lym (24 h) of 80.6% and an MCH (24 h) of 21.3 pg. The MCHC (24 h) was 34.5%, the MCV (24 h) was 61.8 fL and the Mono (24 h) was 2.4%. For the same compound, the Neu (24 h) was 14.8%, the PT (24 h) was 15.4 s and the Plat (24 h) was 119.6 x10_4/uL. It also gave an RBC (24 h) of 637.4 x10_4/ul, a Ret (24 h) of 7.5% and a WBC (24 h) of 66.9 x10_2/uL. It also gave a KIDNEY_L (24 h) of 0.9 g, a KIDNEY_R (24 h) of 1 g and a KIDNEY_TOTAL (24 h) of 1.9 g. For the same compound, the LIVER (24 h) was 9.2 g, the A/G (24 h) was 1.3 and the ALP (24 h) was 1223.4 IU/L. It also gave an ALT (24 h) of 37 IU/L, an AST (24 h) of 74.4 IU/L and a BUN (24 h) of 14 mg/dL. The CRE (24 h) was 0.2 mg/dL, the Ca (24 h) was 10.6 mg/dL and the Cl (24 h) was 107 meq/L. The DBIL (24 h) was 0.002 mg/dL, the GLC (24 h) was 187.6 mg/dL and the IP (24 h) was 7.8 mg/dL. It also gave a K (24 h) of 4.1 meq/L, an LDH (24 h) of 240.4 IU/L and a Na (24 h) of 142.6 meq/L. The PL (24 h) was 148.6 mg/dL, the RALB (24 h) was 3.1 g/dL and the TBIL (24 h) was 0.02 mg/dL. The TC (24 h) was 91 mg/dL, the TG (24 h) was 60.6 mg/dL and the TP (24 h) was 5.6 g/dL. The gamma-GTP (24 h) was 1.6 IU/L.
